# Experimental data published in PMC13021292, “Safety, tolerability and pharmacokinetics of DNDI‐6148, a novel agent for leishmaniasis: A randomized, controlled, single ascending dose study in healthy participants” (British Journal of Clinical Pharmacology, 2025).
# Where two headings read alike, the source gives them in different places.
# Tests used:
# [1] = Plasma pharmacokinetics, first-in-human single ascending oral dose study
# Protocol: (§2) This was a FIH, phase I, double‐blind, parallel, single ascending dose (SAD) study of DNDI‐6148 arginine monohydrate, administered as an oral suspension to healthy male participants. Cohorts 1–8 each included eight participants and were administered 10, 20, 40, 80, 160, 220, 300 or 380 mg (free form) of DNDI‐6148 (in six participants) or placebo (two participants).
# (§3) At the clinical site, a suspension was prepared extemporaneously by the pharmacist within 24 h prior to administration to participants (the timepoint for which stability data of the suspension were available). The IP powder was suspended in 30 mL ORA‐Sweet® (Paddock Laboratories, LLC, Minneapolis, USA) for taste and colour masking. Participants were administered between 4 and 25 mL of the suspensions, followed by the ingestion of 250 mL tap water. Opaque precision syringes were used to administer the solutions to minimize the risk of unblinding. To preclude any dietary effects on the PK of DNDI‐6148, participants fasted for 9 h before they received the IP or placebo. Treatments were administered under the supervision of the investigator at approximately 8 a.m. on Day 1.
# (§4) Blood samples (6 mL per time point) for pharmacokinetic analyses were collected on Day 1 pre‐dose and at the following post‐dose time points: 0.5,1, 1.5 (cohorts 1–4 only), 2, 2.5, 3, 4, 5 (cohorts 5–8 only), 6, 9, 12, 24, 48 and 72 h. […] Within 30 min of blood collection, blood samples were centrifuged at 1500g for 10 min at 4 °C and 500 μL of plasma were transferred into pre‐labelled polypropylene tubes prefilled with phosphoric acid 2% (1:1, v:v). Tubes were capped immediately for each time point, and the plasma was frozen in an upright position at −80 °C for storage.
# (§5) Concentrations of DNDI‐6148 were determined in acidified plasma and acidified urine/BSA mixture using a validated internally standardized liquid chromatography–tandem mass spectrometry (LC–MS/MS) assay with deuterated d4‐DNDI‐6148 as an internal standard. The lower limit of quantitation (LOQ) for DNDI‐6148 was 1 ng/mL in plasma and 10 ng/mL in urine.
# (§6) Values that were below the LOQ before the first concentration equal or above LOQ were set to zero. Other values below the LOQ were not used to calculate the PK parameters. The area under the plasma concentration‐time curve from time zero (pre‐dose) to the time of last quantifiable concentration (AUC0‐last) was calculated using the linear‐log trapezoidal rule. Elimination half‐life (t1/2) was calculated by the equation ln2/λz, after visual inspection of the plasma concentration‐time profiles (considering a minimum of 3 data points, including the last measurable data point and excluding Cmax).
# (§7) PK parameters were derived from plasma concentration vs. time data using non‐compartmental analysis in Phoenix WinNonlin® 8.1 (Certara Inc., Princeton, NJ, USA). Plasma concentration vs. time data and PK parameters were listed and summarized by dose level, using descriptive statistics. Mean concentrations were calculated only if at least ⅔ of the individual concentrations were above the lower LOQ (LLOQ). […] Planned sampling times were used to summarize plasma concentration data; actual sampling times were used in the derivation of PK parameters.
# [2] = Cardiac safety: ECG QTcF, QTcG, heart rate; type: in vivo, human
# Protocol: (§1) Safety was assessed by monitoring AEs throughout the study. Other safety monitoring included 12‐lead ECG recordings, measurement of vital signs, physical and neurological examinations, haematology, blood biochemistry and urinalysis and, for the last four participants of the 160 mg cohort and onwards, CRP and TNFα.
# Triplicate ECGs extracted from 24-hour Holter recordings at predefined time points aligned with the pharmacokinetic (PK) sampling were used for additional cardiac safety analyses. […] For the group correction, α was estimated as the slope of the linear relationship between ln(QT) and ln(RR), based on drug-free (placebo and pre-dose) data (Figure S1).
# [3] = tested on: L. infantum; conditions: cited from earlier work
# [4] = Safety and tolerability (adverse events), single ascending oral dose study; type: in vivo, human
# Protocol: The primary endpoint was assessment of the safety and tolerability of DNDI‐6148 by evaluation of the following parameters: adverse events (AEs), physical examination (including body weight), clinical neurological examination, vital signs, 12‐lead ECG, clinical laboratory (including serum chemistry, haematology, hormonology and urinalysis) and psychological and cognitive examinations.
# as §1
# To minimize risk, participants were dosed sequentially, using sentinels in each cohort (one receiving DNDI‐6148, one placebo), as per European Medicines Agency guidelines.[12] Stopping criteria used in that study are described in Supplementary Information, Text S2. If the previous dose was well tolerated, with no safety concerns, the Safety Review Committee decided on dose escalation after reviewing blinded safety and PK data from all available cohorts.
# [5] = tested on: L. infantum; conditions: 25 mg/kg BID for five days, oral; cited from earlier work
# [6] = parameters: method as in unpublished data; conditions: non‐clinical studies ref unpublished data; cited from earlier work
# [7] = tested on: L. donovani; conditions: cited from earlier work
# [8] = cited from earlier work
# [9] = pH 7.4; cited from earlier work
# [10] = tested on: L. infantum; conditions: 25 mg/kg BID for five or ten days; cited from earlier work
# [11] = Plasma CRP and TNFα pre- and post-dose (exploratory inflammation markers); type: in vivo, human; parameters: CRP plasma concentration, Mean / TNFα plasma concentration, Mean: unit not given here; conditions: for CRP change from pre-dose, Mean / CRP change from pre-dose, Median / CRP plasma concentration, Mean / CRP plasma concentration, Median / TNFα change from pre-dose, Mean / TNFα plasma concentration, Mean / TNFα plasma concentration, Median / TNFα change from pre-dose, Median: 6 h post-dose (D1-T6H)
# Text: Recruitment was temporarily interrupted on 16 March 2020 due to confinement measures related to the COVID‐19 outbreak in France. The study resumed on 17 August 2020, allowing for the completion of recruitment for cohorts 2, 3 and 4. Additionally, four participants were included in cohort 5 before suspension of the investigational product (IP) administration on 30 January 2021 as a precaution to assess emerging unexpected data in a non‐clinical Fertility and Early Embryonic Development study. The protocol was further amended to include evaluation of plasma concentrations of C‐reactive protein (CRP) and of tumour necrosis factor alpha (TNFα) pre and post‐dose (6 h) as exploratory markers of possible inflammation. Subsequent cohorts were completed up to the 380 mg dose level (cohort 8) without further interruption of the study.
# Exploratory endpoints included ECG parameters compared to baseline and placebo; the exploratory identification of DNDI‐6148 metabolites; and, for the last four participants of the 160 mg cohort and the 220 mg, 300 mg and 380 mg cohorts, the exploratory evaluation of plasma concentrations of CRP and TNFα pre‐ and post‐dose.
# as §1
# [12] = human, in vivo, po, 220 mg
# Protocol: as §2, §3, §4, §5, §6, §7
# [13] = tested on: L. donovani; conditions: 25 mg/kg BID for five days, oral; cited from earlier work
structure (smiles),measurement,setting,value
Cc1c(C(=O)Nc2ccc3c(c2)B(O)OC3)nnn1-c1ccccn1 [DNDI‐6148],Cmax,"[1]; 380 mg single oral dose, GM",3487.2 ng/mL
same,Vd/F,"[1]; 380 mg single oral dose, GM",79.44 L
same,t1/2,"[1]; 380 mg single oral dose, GM",24.76 h
same,tmax,"[1]; 380 mg single oral dose, GM",5.28 h
same,CL/F,"[1]; 380 mg single oral dose, Mean",2.26 L/h
same,Cmax,"[1]; 380 mg single oral dose, Mean",3606 ng/mL
same,Vd/F,"[1]; 380 mg single oral dose, Mean",79.82 L
same,t1/2,"[1]; 380 mg single oral dose, Mean",25.46 h
same,tmax,"[1]; 380 mg single oral dose, Mean",5.50 h
same,GM half‐life in plasma,[1]; 10 and 20 mg doses,around 13 h
same,"median tmax, generally",[1]; all dose levels,4 to 6 h
same,GM half‐life in plasma,[1]; higher doses,around 20 h
same,largest mean ΔΔQTcG,"[2]; 160 mg, 12 h post-dose",7.24 ms
same,mean ΔΔQTcG,"[2]; 380 mg, 9 h post-dose",1.83 ms
same,QTcG changes from baseline,[2]; all doses,≤ 30 ms
same,QTcG values,[2]; all doses,≤ 450 ms
same,QTcF value >500 msec or change from baseline QTcF >60 msec,[2]; any participant,No QTcF value >500 msec or change from baseline QTcF >60 msec was recorded
same,upper limit of the 90% CI of ΔΔQTcF,"[2]; any single dose, concentration‐response modelling",≤ 10 ms
same,"maximum effect on ΔΔQTcF, estimated","[2]; dose of 380 mg, concentration‐response modelling","1.65 (90% CI: −0.635, 3.94) msec"
same,in vitro activity against L. infantum,[3],in the micromolar range
same,"TEAE Musculoskeletal and connective tissue disorders, participants n (%) [events]",[4]; 10 mg (N = 6),0
same,"TEAE Musculoskeletal and connective tissue disorders, participants n (%) [events]",[4]; 80 mg (N = 6),0
same,"TEAE Musculoskeletal and connective tissue disorders, participants n (%) [events]",[4]; 160 mg (N = 6),0
same,"TEAE Musculoskeletal and connective tissue disorders, participants n (%) [events]",[4]; 220 mg (N = 6),0
same,"TEAE Musculoskeletal and connective tissue disorders, participants n (%) [events]",[4]; 380 mg (N = 6),0
same,TEAEs (events),[4]; in vivo,10
same,participants with TEAEs,[4]; in vivo,8
same,"participants with TEAEs, percentage",[4]; in vivo,14.3%
same,maximal tolerated dose,[4]; single doses 10–380 mg,not reached
same,efficacy in L. infantum mouse model of VL,[5],demonstrated efficacy
same,blood–brain barrier crossing,[6],cross the blood–brain barrier
same,in vitro activity against L. donovani,[7],in the micromolar range
same,CLint in human liver microsomes,[8],below 0.3 μL/min/mg
same,logD,[9],1.92
same,efficacy by oral route in L. infantum hamster model of VL,[10],demonstrated efficacy
same,"CRP change from pre-dose, Mean","[11]; 160 mg, n 3",-0.03
same,"CRP change from pre-dose, Median","[11]; 160 mg, n 3",0.00
same,"CRP plasma concentration, Mean","[11]; 160 mg, n 3",0.80
same,"CRP plasma concentration, Median","[11]; 160 mg, n 3",0.60
same,"TNFα change from pre-dose, Mean","[11]; 160 mg, n 3",0.15
same,"TNFα plasma concentration, Mean","[11]; 160 mg, n 3",2.55
same,"TNFα plasma concentration, Median","[11]; 160 mg, n 3",2.58
same,"CRP change from pre-dose, Mean","[11]; 220 mg, n 6",-0.03
same,"CRP change from pre-dose, Median","[11]; 220 mg, n 6",0.00
same,"CRP plasma concentration, Mean","[11]; 220 mg, n 6",0.72
same,"CRP plasma concentration, Median","[11]; 220 mg, n 6",0.60
same,"TNFα change from pre-dose, Mean","[11]; 220 mg, n 6",-19.68
same,"TNFα change from pre-dose, Median","[11]; 220 mg, n 6",-15.26
same,"TNFα plasma concentration, Mean","[11]; 220 mg, n 6",1.77
same,"TNFα plasma concentration, Median","[11]; 220 mg, n 6",1.74
same,"CRP change from pre-dose, Mean","[11]; 300 mg, n 6",-0.13
same,"CRP change from pre-dose, Median","[11]; 300 mg, n 6",-0.15
same,"CRP plasma concentration, Mean","[11]; 300 mg, n 6",2.47
same,"CRP plasma concentration, Median","[11]; 300 mg, n 6",1.15
same,"TNFα change from pre-dose, Mean","[11]; 300 mg, n 6",-0.37
same,"TNFα change from pre-dose, Median","[11]; 300 mg, n 6",0.18
same,"TNFα plasma concentration, Mean","[11]; 300 mg, n 6",2.67
same,"TNFα plasma concentration, Median","[11]; 300 mg, n 6",2.62
same,"TNFα change from pre-dose, Mean","[11]; 380 mg, n 4",0.33
same,"TNFα change from pre-dose, Median","[11]; 380 mg, n 4",0.32
same,"TNFα plasma concentration, Mean","[11]; 380 mg, n 4",2.82
same,"TNFα plasma concentration, Median","[11]; 380 mg, n 4",2.75
same,"CRP change from pre-dose, Mean","[11]; 380 mg, n 6",-0.02
same,"CRP change from pre-dose, Median","[11]; 380 mg, n 6",0.00
same,"CRP plasma concentration, Mean","[11]; 380 mg, n 6",0.87
same,"CRP plasma concentration, Median","[11]; 380 mg, n 6",0.60
same,plasma CRP and TNFα concentrations post‐dose compared with pre‐dose,[11]; last four participants of 160 mg cohort and 220–380 mg cohorts,not significantly increased
same,CL/F,[12],2.55 L/h
same,efficacy in L. donovani mouse model of VL,[13],demonstrated efficacy
